Reference: PubChem BioAssay AID248 (DTP/NCI, 2004)
Inconclusive results and toxic doses are left out. Rule as the data show it: active = T/C of 150% or more; inactive = T/C below 125%.

System: L1210 leukemia ip in BDF1 mice, survival T/C
Experiment: NCI In Vivo Anticancer Drug Screen. Data for tumor model L1210 Leukemia (intraperitoneal) in B6D2F1 (BDF1) mice
Conditions: endpoint: mean survival time, higher = longer survival
Method in brief: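 Each compound was tested against a transplantable tumor grown in mice. The endpoint was survival, with treated animals benchmarked against vehicle controls as a simple ratio.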

[1] = dose: 100.0 mg/kg/injection, schedule: Q04DX003 (ip), vehicle: water
[2] = dose: 200.0 mg/kg/injection, schedule: Q04DX003 (ip), vehicle: water
[3] = dose: 400.0 mg/kg/injection, schedule: Q04DX003 (ip), vehicle: water
[4] = dose: 100.0 mg/kg/injection, schedule: Q04DX002 (ip), vehicle: Klucel (hydroxypropylcellulose) (HPC)
[5] = dose: 200.0 mg/kg/injection, schedule: Q04DX002 (ip), vehicle: Klucel (hydroxypropylcellulose) (HPC)
[6] = dose: 400.0 mg/kg/injection, schedule: Q04DX002 (ip), vehicle: Klucel (hydroxypropylcellulose) (HPC)
[7] = dose: 100.0 mg/kg/injection, schedule: Q01DX001 (ip), vehicle: saline with Tween-80
[8] = dose: 100.0 mg/kg/injection, schedule: Q01DX009 (ip), vehicle: saline with Tween-80
[9] = dose: 200.0 mg/kg/injection, schedule: Q01DX001 (ip), vehicle: saline with Tween-80
[10] = dose: 200.0 mg/kg/injection, schedule: Q01DX009 (ip), vehicle: saline with Tween-80
[11] = dose: 400.0 mg/kg/injection, schedule: Q01DX001 (ip), vehicle: saline with Tween-80
[12] = dose: 400.0 mg/kg/injection, schedule: Q01DX009 (ip), vehicle: saline with Tween-80
[13] = dose: 100.0 mg/kg/injection, schedule: Q01DX001 (ip), vehicle: saline
[14] = dose: 200.0 mg/kg/injection, schedule: Q01DX001 (ip), vehicle: saline
[15] = dose: 100.0 mg/kg/injection, schedule: Q04DX003 (ip), vehicle: saline with Tween-80
[16] = dose: 200.0 mg/kg/injection, schedule: Q04DX003 (ip), vehicle: saline with Tween-80
[17] = dose: 400.0 mg/kg/injection, schedule: Q04DX002 (ip), vehicle: saline with Tween-80
[18] = dose: 400.0 mg/kg/injection, schedule: Q04DX003 (ip), vehicle: saline with Tween-80
[19] = dose: 50.0 mg/kg/injection, schedule: Q01DX009 (ip), vehicle: Klucel (hydroxypropylcellulose) (HPC)
[20] = dose: 100.0 mg/kg/injection, schedule: Q01DX009 (ip), vehicle: Klucel (hydroxypropylcellulose) (HPC)
[21] = dose: 400.0 mg/kg/injection, schedule: Q01DX001 (ip), vehicle: saline
[22] = dose: 100.0 mg/kg/injection, schedule: Q04DX003 (ip), vehicle: Klucel (hydroxypropylcellulose) (HPC)
[23] = dose: 200.0 mg/kg/injection, schedule: Q04DX003 (ip), vehicle: Klucel (hydroxypropylcellulose) (HPC)
[24] = dose: 400.0 mg/kg/injection, schedule: Q01DX009 (ip), vehicle: Klucel (hydroxypropylcellulose) (HPC)
[25] = dose: 400.0 mg/kg/injection, schedule: Q04DX003 (ip), vehicle: Klucel (hydroxypropylcellulose) (HPC)

Measured: T/C

O=c1cc(N=Nc2ccc(O)cc2)[nH]c(=O)[nH]1
inactive: dose: 100.0 mg/kg/injection, schedule: Q01DX009 (ip), vehicle: water 94 % of control | [1] 103 % of control | dose: 200.0 mg/kg/injection, schedule: Q01DX009 (ip), vehicle: water 94 % of control | [2] 103 % of control | dose: 400.0 mg/kg/injection, schedule: Q01DX009 (ip), vehicle: water 92 % of control | [3] 104 % of control

N#CC(c1ccccc1)C(C/C(=N\O)c1ccccc1)c1ccccc1 (stereo not drawn)
inactive: [4] 111 % of control | [5] 100 % of control | [6] 96 % of control

O=C(COc1ccccc1C(=O)O)NCc1ccc(Cl)cc1
inactive: dose: 100.0 mg/kg/injection, schedule: Q04DX003 (ip), vehicle: gum acacia 97 % of control | dose: 200.0 mg/kg/injection, schedule: Q04DX003 (ip), vehicle: gum acacia 95 % of control | dose: 400.0 mg/kg/injection, schedule: Q04DX003 (ip), vehicle: gum acacia 96 % of control

C=CCCC1(CCC(C)C)C(=O)NC(=O)NC1=O
inactive: dose: 150.0 mg/kg/injection, schedule: Q01DX001 (ip), vehicle: saline 116 % of control

CCOC(=O)N1CCc2nc3ccc(Cl)cc3cc21
inactive: [7] 95 % of control | [8] 104 % of control | [9] 93 % of control | [10] 110 % of control | [11] 98 % of control | [12] 106 % of control

COc1cc2c(cc1OC)C(Cc1ccc(O)cc1)N(C)CC2 (stereo not drawn)
inactive: [13] 96 % of control | [14] 91 % of control

CCN(CC)CCOCC(=O)Nc1c(C)cccc1Cl
inactive: dose: 100.0 mg/kg/injection, schedule: Q04DX003 (ip), vehicle: saline sonified 93 % of control | dose: 200.0 mg/kg/injection, schedule: Q04DX003 (ip), vehicle: saline sonified 106 % of control

S=C(CC(C(=S)N1CCOCC1)N1CCOCC1)N1CCOCC1 (stereo not drawn)
inactive: dose: 25.6 mg/kg/injection, schedule: Q04DX002 (ip), vehicle: saline with Tween-80 98 % of control | dose: 64.0 mg/kg/injection, schedule: Q04DX002 (ip), vehicle: saline with Tween-80 102 % of control | [15] 98 % of control | dose: 160.0 mg/kg/injection, schedule: Q04DX002 (ip), vehicle: saline with Tween-80 87 % of control | [16] 104 % of control | [17] 98 % of control | [18] 101 % of control

CC(=O)CC(=O)N(C(=O)CC(C)=O)c1ccccc1C
inactive: dose: 50.0 mg/kg/injection, schedule: Q01DX009 (ip), vehicle: saline with Tween-80 105 % of control | [8] 105 % of control | [10] 94 % of control

O=C1NC(c2cccc(OCc3ccccc3)c2)Nc2ccccc21 (stereo not drawn)
inactive: [19] 105 % of control | [20] 107 % of control | dose: 150.0 mg/kg/injection, schedule: Q01DX009 (ip), vehicle: Klucel (hydroxypropylcellulose) (HPC) 109 % of control

Cc1cc(Cl)nc2ccc3ccccc3c12
inactive: [13] 96 % of control | [14] 93 % of control | [21] 89 % of control

ICCC(c1ccccc1)(c1ccccc1)c1ccccc1
inactive: dose: 50.0 mg/kg/injection, schedule: Q01DX001 (ip), vehicle: saline 108 % of control | [13] 96 % of control | [14] 96 % of control | [21] 96 % of control

ClCc1ccc(OCc2ccccc2)c(OCc2ccccc2)c1
inactive: [1] 104 % of control | [2] 100 % of control | [3] 102 % of control

CC(=O)/C(C)=C/c1ccccc1
inactive: dose: 100.0 mg/kg/injection, schedule: Q01DX001 (ip), vehicle: other 107 % of control | [15] 100 % of control | dose: 200.0 mg/kg/injection, schedule: Q01DX001 (ip), vehicle: other 96 % of control | [16] 105 % of control | dose: 400.0 mg/kg/injection, schedule: Q01DX001 (ip), vehicle: other 91 % of control | [18] 100 % of control

O=[N+]([O-])c1cc2c3ccccc3ccc2c2ccccc12
inactive: [20] 96 % of control | [22] 95 % of control | dose: 200.0 mg/kg/injection, schedule: Q01DX009 (ip), vehicle: Klucel (hydroxypropylcellulose) (HPC) 94 % of control | [23] 97 % of control | [24] 100 % of control | [25] 94 % of control

O=c1cc(O)ccn1CC(O)c1ccc(Cl)s1 (stereo not drawn)
inactive: [8] 89 % of control | [15] 100 % of control | [10] 88 % of control | [16] 98 % of control | [12] 94 % of control | [18] 99 % of control

O=C1OC(c2ccccc2)=N/C1=C/c1ccc(OCc2ccccc2)c(OCc2ccccc2)c1
inactive: [7] 91 % of control | [9] 95 % of control | [11] 86 % of control

CCCNC(=O)Oc1ccc(-c2ccccc2)cc1Cl
inactive: dose: 100.0 mg/kg/injection, schedule: Q04DX002 (ip), vehicle: saline with Tween-80 113 % of control | dose: 200.0 mg/kg/injection, schedule: Q04DX002 (ip), vehicle: saline with Tween-80 100 % of control | [17] 97 % of control

Oc1c(Br)cc(Br)cc1C=Nc1ccc(I)cc1.Oc1c(Br)cc(Br)cc1C=Nc1ccc(I)cc1.[Co]
inactive: [15] 98 % of control | [16] 92 % of control

COC(=O)C1(O)CC(=O)CCC1c1ccccc1 (stereo not drawn)
inactive: [22] 105 % of control | [23] 94 % of control | [25] 95 % of control

O[C@@H]1CCCC[C@@H]1n1cnc2c(=S)nc[nH]c21
inactive: [8] 97 % of control | [15] 98 % of control | [10] 93 % of control | [16] 93 % of control | [12] 92 % of control | [18] 91 % of control

CC/C(=N\N=C(/CC)c1ccccc1)c1ccccc1
inactive: dose: 25.0 mg/kg/injection, schedule: Q01DX009 (ip), vehicle: Klucel (hydroxypropylcellulose) (HPC) 98 % of control | [19] 101 % of control | [20] 98 % of control | [4] 96 % of control | [5] 107 % of control | [24] 86 % of control | [6] 91 % of control
